Data from patent US20200323962A1, “LIPOPHILIC PEPTIDE PRODRUGS” (YISSUM RESEARCH DEVELOPMENT COMPANY OF THE HEBREW …, priority 2017, published 2020).
Read-outs that look alike come from different tables or passages of the source. Marks after values point to notes of the source that are not given here. One block for each compound: values may come before it. Where a SMILES comes first, the peptide text is derived from it. [ ]: non-standard residue; d: D form. Arg(ω,ω'-(C6H13OCO)2) = CCCCCCOC(=O)N=C(NCCC[C@H](N)C(=O)O)NC(=O)OCCCCCC

Columns and labels:
[1] = for Papp A→B: Caco-2, Papp (AB); for Papp B→A: Caco-2, Papp (BA)
[2] = pH 7.4, LogD
[3] = for Mass retention / Permeability, Mean / Permeability, replicate 1 / Permeability, replicate 2 / Permeability, replicate 3: PAMPA, pH 7.4
in vitro = details: human; for efflux ratio at 90 min, 10 µM: Caco-2, pH 7.4, Net efflux (quotient of Papp (BA) to Papp (AB)); for Papp A→B at 90 min, 10 μM: Caco-2, pH 7.4, Papp (AB); for Papp B→A at 90 min, 10 μM: Caco-2, pH 7.4, Papp (BA)
human αvβ5-integrin = molecular target: T1, human αvβ5-integrin (Homo sapiens, UniProt P06756+P18084); test: Integrin binding assay (solid-phase), αvβ5
T1 construct: purchased Millipore

human αvβ6-Integrin = molecular target: T2, human αvβ6-Integrin (Homo sapiens, UniProt P06756+P18564, DEL708-788); test: Integrin binding assay (solid-phase), αvβ6
T2 construct: purchased R&D

human α5β1-integrin = human α5β1-integrin (Homo sapiens, UniProt P05556+P08648, DEL729-798); test: biochemical
Caco-2 cells = test: Caco-2 permeability study (Examples 1-4); details: qualitative
[4] = Caco-2 permeability study (Examples 1-4)
[5] = pH 7.4 (mean in parentheses below reported bound)

Chain of human α5β1-integrin (P08648 42-995 limits assumed, stated change not applied): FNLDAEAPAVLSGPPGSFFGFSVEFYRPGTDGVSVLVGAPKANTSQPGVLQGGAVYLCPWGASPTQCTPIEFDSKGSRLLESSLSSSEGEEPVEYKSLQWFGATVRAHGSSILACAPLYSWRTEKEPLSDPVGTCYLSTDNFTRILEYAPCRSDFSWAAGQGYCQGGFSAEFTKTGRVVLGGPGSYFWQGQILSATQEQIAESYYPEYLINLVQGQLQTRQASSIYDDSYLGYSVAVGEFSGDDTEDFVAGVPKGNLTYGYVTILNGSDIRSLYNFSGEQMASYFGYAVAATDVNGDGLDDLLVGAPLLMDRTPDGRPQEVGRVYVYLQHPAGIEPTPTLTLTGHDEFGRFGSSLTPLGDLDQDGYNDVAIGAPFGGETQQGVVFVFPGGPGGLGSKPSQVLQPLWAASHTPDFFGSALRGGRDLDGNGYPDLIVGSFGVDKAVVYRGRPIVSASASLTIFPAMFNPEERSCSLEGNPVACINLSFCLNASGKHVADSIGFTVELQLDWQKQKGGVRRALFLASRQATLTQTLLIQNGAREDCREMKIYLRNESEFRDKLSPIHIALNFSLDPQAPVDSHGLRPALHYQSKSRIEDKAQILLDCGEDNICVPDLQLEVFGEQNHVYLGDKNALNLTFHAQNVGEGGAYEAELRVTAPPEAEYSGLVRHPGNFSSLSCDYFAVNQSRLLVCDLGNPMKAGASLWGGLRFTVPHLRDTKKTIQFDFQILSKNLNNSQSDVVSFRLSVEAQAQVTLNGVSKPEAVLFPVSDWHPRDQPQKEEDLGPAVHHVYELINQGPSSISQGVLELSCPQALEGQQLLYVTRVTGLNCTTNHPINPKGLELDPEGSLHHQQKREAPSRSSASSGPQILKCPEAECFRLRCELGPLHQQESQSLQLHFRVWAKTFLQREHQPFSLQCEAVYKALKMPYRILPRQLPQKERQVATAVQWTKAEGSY
Chain of human α5β1-integrin (P05556 21-728 limits assumed, stated change not applied): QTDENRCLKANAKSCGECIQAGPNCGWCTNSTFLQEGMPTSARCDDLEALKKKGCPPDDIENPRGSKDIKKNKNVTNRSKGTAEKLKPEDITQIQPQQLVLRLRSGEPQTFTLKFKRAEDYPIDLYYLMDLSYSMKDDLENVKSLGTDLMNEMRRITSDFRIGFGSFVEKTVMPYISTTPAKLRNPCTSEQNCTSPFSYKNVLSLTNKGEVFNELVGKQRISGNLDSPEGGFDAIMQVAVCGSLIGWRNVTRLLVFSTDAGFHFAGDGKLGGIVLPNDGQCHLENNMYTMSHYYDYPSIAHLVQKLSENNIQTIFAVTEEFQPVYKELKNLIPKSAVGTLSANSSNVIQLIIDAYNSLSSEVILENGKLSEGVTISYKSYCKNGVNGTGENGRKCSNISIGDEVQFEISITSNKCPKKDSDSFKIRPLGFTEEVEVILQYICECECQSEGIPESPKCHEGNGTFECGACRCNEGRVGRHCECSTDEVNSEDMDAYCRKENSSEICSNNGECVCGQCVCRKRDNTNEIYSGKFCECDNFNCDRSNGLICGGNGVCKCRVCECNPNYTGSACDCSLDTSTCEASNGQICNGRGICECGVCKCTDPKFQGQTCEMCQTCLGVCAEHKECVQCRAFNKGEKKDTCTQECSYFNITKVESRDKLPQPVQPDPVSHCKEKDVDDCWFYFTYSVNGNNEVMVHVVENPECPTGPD
T2 sequence (P06756 31-992 limits assumed, stated change not applied): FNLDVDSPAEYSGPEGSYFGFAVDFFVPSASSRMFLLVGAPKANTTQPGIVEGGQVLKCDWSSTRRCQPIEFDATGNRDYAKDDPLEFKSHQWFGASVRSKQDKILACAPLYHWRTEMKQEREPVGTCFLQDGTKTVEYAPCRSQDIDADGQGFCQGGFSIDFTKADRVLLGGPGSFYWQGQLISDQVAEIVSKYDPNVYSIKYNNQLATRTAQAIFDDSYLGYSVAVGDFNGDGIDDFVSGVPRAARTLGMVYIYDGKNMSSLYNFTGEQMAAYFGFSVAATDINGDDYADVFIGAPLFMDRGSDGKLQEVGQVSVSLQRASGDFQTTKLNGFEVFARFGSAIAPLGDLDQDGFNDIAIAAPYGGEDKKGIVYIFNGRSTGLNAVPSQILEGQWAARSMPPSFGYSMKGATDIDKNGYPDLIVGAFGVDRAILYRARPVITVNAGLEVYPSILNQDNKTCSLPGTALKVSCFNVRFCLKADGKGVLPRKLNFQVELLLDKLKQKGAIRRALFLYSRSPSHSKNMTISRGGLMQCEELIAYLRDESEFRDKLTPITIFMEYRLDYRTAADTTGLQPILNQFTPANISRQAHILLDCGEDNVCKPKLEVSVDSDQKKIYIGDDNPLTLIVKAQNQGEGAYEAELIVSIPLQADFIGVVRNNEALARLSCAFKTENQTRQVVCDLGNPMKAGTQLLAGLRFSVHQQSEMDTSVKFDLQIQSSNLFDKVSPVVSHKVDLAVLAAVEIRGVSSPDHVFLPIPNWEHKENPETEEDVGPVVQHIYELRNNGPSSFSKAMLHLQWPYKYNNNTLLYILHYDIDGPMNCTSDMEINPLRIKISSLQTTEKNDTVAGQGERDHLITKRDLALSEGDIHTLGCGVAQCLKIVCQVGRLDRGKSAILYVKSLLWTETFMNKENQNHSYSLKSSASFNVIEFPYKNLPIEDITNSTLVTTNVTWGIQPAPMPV
T2 sequence (P18564 22-707 limits assumed, stated change not applied): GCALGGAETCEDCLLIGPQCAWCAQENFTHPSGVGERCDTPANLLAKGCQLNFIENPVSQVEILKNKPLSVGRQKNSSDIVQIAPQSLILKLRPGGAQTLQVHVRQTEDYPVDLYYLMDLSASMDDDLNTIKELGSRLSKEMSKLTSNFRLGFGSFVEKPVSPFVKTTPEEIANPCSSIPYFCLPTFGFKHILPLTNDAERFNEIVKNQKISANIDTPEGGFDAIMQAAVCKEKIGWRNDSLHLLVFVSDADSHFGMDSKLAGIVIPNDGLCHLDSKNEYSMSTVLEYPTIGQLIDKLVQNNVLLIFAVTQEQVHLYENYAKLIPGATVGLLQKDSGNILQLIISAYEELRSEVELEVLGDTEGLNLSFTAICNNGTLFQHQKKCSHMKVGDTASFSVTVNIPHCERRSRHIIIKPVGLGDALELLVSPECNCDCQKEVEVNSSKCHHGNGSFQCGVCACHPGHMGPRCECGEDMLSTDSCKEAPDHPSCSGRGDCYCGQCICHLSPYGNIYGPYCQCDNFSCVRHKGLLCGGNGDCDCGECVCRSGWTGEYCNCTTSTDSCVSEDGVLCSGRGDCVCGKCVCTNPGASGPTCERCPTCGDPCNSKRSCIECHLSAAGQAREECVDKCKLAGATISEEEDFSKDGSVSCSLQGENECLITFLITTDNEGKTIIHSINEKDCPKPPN

SMILES: CCCCCCOC(=O)N=C(NCCC[C@@H]1NC(=O)[C@H](C(C)C)N(C)C(=O)[C@@H](Cc2ccccc2)NC(=O)[C@H](CC(=O)OC)NC(=O)CNC1=O)NC(=O)OCCCCCC [Cil.-P, c(f*VR(Hoc)2 GD)]
PAMPA permeability [3]: does not enhance the permeability | Mass retention [3]: 36% | Permeability, Mean [3]: −6.5 Log10[10^−6 cm/s] | Permeability, replicate 1 [3]: −8.1 Log10[10^−6 cm/s] | Permeability, replicate 2 [3]: −6.6 Log10[10^−6 cm/s] | Permeability, replicate 3 [3]: −6.5 Log10[10^−6 cm/s]

SMILES: C[C@@H]1NC(=O)[C@H](C)N(C)C(=O)[C@H](C)NC(=O)[C@H](CC(=O)O)N(C)C(=O)CNC(=O)[C@@H](CCCNC(=N)N)NC1=O [compound 17, c(rG*DA*AA)]
IC50 (human αvβ5-integrin): > 5 µM | IC50 (human αvβ6-Integrin): > 10 µM | IC50 (human α5β1-integrin): > 10 µM | Caco-2 permeability (Caco-2 cells): significant lower permeability

SMILES: CCCCCCOC(=O)N=C(NCCC[C@@H]1NC(=O)[C@H](Cc2ccccc2)NC(=O)[C@@H]2CCCN2C(=O)[C@@H]2CCCN2C(=O)[C@H](CC(C)C)NC(=O)[C@H](C)NC(=O)[C@H](CC(C)C)NC(=O)[C@H](CC(=O)OC)NC(=O)CNC1=O)NC(=O)OCCCCCC [AR372] (cyclo(ALPPF[Arg(ω,ω'-(C6H13OCO)2)]GD(OMe)L))
Papp A→B ([1]; Mean): < 0.1 nm/s | Papp A→B ([1]; replicate 1): < 0.1 nm/s | Papp A→B ([1]; replicate 2): < 0.1 nm/s | Papp A→B ([1]; replicate 3): < 0.1 nm/s | Papp B→A ([1]; Mean): 4 nm/s | Papp B→A ([1]; replicate 1): 5 nm/s | Papp B→A ([1]; replicate 2): 5 nm/s | Papp B→A ([1]; replicate 3): 3 nm/s | logD ([2]; pH 7.4 (mean / reported value)): > 4.5 | logD [2, 5]: 4.85 | logD ([2]; pH 7.4 (single replicate)): 4.8 | PAMPA permeability [3]: >−5 to >−6 | Mass retention [3]: 80% | Permeability, Mean [3]: −5.9 Log10[10^−6 cm/s] | Permeability, replicate 1 [3]: −6.2 Log10[10^−6 cm/s] | Permeability, replicate 2 [3]: −5.7 Log10[10^−6 cm/s] | Permeability, replicate 3 [3]: −5.7 Log10[10^−6 cm/s]

Results, then the compound that gave them:

Papp A→B ([1]; Mean): 3 nm/s | Papp A→B ([1]; replicate 1): 3 nm/s | Papp A→B ([1]; replicate 2): 2 nm/s | Papp A→B ([1]; replicate 3): 2 nm/s | Papp B→A ([1]; Mean): 3 nm/s | Papp B→A ([1]; replicate 1): 3 nm/s | Papp B→A ([1]; replicate 2): 3 nm/s | Papp B→A ([1]; replicate 3): 3 nm/s | logD ([2]; pH 7.4 (mean / reported value)): < -1 | logD [2, 5]: -1.49 | Mass retention [3]: 2% | Permeability, Mean [3]: <−7 Log10[10^−6 cm/s] | Permeability, replicate 1 [3]: <−7 Log10[10^−6 cm/s] | Permeability, replicate 2 [3]: <−7 Log10[10^−6 cm/s] | Permeability, replicate 3 [3]: <−7 Log10[10^−6 cm/s] | efflux ratio at 90 min, 10 µM (in vitro): 1.1
SMILES: CC(C)C[C@@H]1NC(=O)CNC(=O)[C@@H]2CCCN2C(=O)[C@@H]2CCCN2C(=O)[C@H](CC(C)C)NC(=O)[C@H](CC(=O)O)NC(=O)CNC(=O)[C@H](CCCNC(=N)N)NC1=O [FRX068] (cyclo(RGDLPPGL))

efflux ratio at 90 min, 10 µM (in vitro): 0.8 | Papp A→B at 90 min, 10 μM (in vitro; Mean): 181 nm/s | Papp A→B at 90 min, 10 μM (in vitro; replicate 1): 149 nm/s | Papp A→B at 90 min, 10 μM (in vitro; replicate 2): 241 nm/s | Papp A→B at 90 min, 10 μM (in vitro; replicate 3): 153 nm/s | Papp B→A at 90 min, 10 μM (in vitro; Mean): 153 nm/s | Papp B→A at 90 min, 10 μM (in vitro; replicate 2): 153 nm/s | Papp B→A at 90 min, 10 μM (in vitro; replicate 3): 170 nm/s
SMILES: CC(C)NCC(O)COc1cccc2ccccc12 (stereo not shown) [Propranolol]

Mass retention ([3]; 4 h, 50 μM): 21% | Permeability, Mean [3]: <−7* Log10[10^−6 cm/s] | Permeability, replicate 1 [3]: <−7 Log10[10^−6 cm/s] | Permeability, replicate 2 [3]: <−7 Log10[10^−6 cm/s] | Permeability, replicate 3 [3]: <−7 Log10[10^−6 cm/s]
SMILES: CNC(=C[N+](=O)[O-])NCCSCc1ccc(CN(C)C)o1 [Ranitidine, reference compound]

efflux ratio ([4]; Caco-2): 13 | Papp A→B ([4]; Caco-2, Caco-2 Papp A-to-B, A-to-B, text values (FIGS. 4, 5, 7, 17-20), unit inferred): 8 nm/s | Papp B→A ([4]; Caco-2, Caco-2 Papp B-to-A, B-to-A, text values (FIGS. 5, 18, 20), unit inferred): 106 nm/s | Papp A→B ([4]; Caco-2, Papp AB, Table 3, n = 3): 8.2 ± 1.3 nm/s | Papp B→A ([4]; Caco-2, Papp BA, Table 3, n = 3): 107 ± 21.4 nm/s
SMILES: CCCCCCOC(=O)N=C(NCCC[C@@H]1NC(=O)[C@@H](C(C)C)N(C)C(=O)[C@H](C)N(C)C(=O)[C@H](C)NC(=O)[C@H](CC(=O)OC)NC(=O)CNC1=O)NC(=O)OCCCCCC [peptide 29P, c(*vR(Hoc)2GD(OMe)A*A)]
